In PubChem BioAssay AID463081 (The Scripps Research Institute Molecular Screening Center, 2010):

Target: Glutathione S-transferase omega-1 (Homo sapiens) (UniProt P78417)
Assay: GSTO1 inhibitor potency, recombinant enzyme, late-stage follow-up, biochemical, SE-Rh probe, in-gel fluorescence, powder samples (AID 463081)
Settings: recombinant GSTO1, SE-Rh probe labeling

Chain of Glutathione S-transferase omega-1 (Homo sapiens) (P78417 whole entry, looked up): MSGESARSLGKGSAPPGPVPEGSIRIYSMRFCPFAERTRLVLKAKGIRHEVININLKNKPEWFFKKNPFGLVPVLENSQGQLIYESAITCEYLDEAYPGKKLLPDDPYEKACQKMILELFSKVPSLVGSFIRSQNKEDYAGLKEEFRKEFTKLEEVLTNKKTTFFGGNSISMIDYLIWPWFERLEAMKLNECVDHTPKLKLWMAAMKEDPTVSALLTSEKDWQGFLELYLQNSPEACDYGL

COc1ccc(C(C(=O)NC2CCCCC2)N(C(=O)CCl)c2ccc(Cl)cc2)cc1 (stereo unspecified)
IC50: 22 nM
